Measured values: patent US11691960B2, “2-[thiophen-2-yl)formamido]-N-(phenyl)-2-methylpropanamide derivatives and the use thereof as medicament” (Boehringer Ingelheim International GmbH, priority 2020, dated 2023)

Key:
[1] = Assay F: tissue distribution in mouse after oral application; assay type: in vivo
From the text: (§1) In order to estimate the amount of administered drug to enter the brain, the brain to plasma ratio is used as surrogate parameter. As efflux transporters (e.g. P-gp) are located at the blood-brain barrier, compounds acting as substrates will be actively transported out of the brain. As these efflux transporters are not expressed in muscle tissue, the relative distribution ratio of compound between muscle and brain tissue can be used as indication for an efflux in vivo in rats or mice. In case there is no in vivo efflux detectable (in rats/mice) and in case there is no efflux in vitro (MDCK-MDR1 (P-gp)), a brain exposure in patients can be expected [see Table 7 for comparison of in vitro efflux data (MDCK-MDR1 assay) and in vivo efflux data (tissue distribution in rat/mouse after oral application)].
(§2) Assay F. Determination of Tissue Distribution in Rat/Mouse After Oral Application of Compounds
Male Han Wistar rats or C57BL/6NRj mice were orally dosed with 10 μmol/kg of compound to be investigated, suspended in 0.5% Natrosol/0.015% Tween80. Blood was collected in K3EDTA containing vials from the sublingual vein in short time Isoflurane anesthesia in rat or from the saphenous vein in conscious mice at […], 0.25, 0.5, 1, 2, 3, 4, 8 and 24 hours post administration. Subsequently, plasma was prepared by centrifugation for 5 min at 5000 rpm and stored at −20° C. […]

MDR1 (P-gp) = MDR1 (P-gp) (Homo sapiens (Human), UniProt P08183); experiment: Assay E: MDCK assay MDR-1 (P-gp); assay type: in vitro ADME; conditions: for efflux ratio at 2 h, 10 μM: human, MDCK-MDR1, pH 7.4, Table 7, final test concentration 10 μM, read-out: MDCK-MDR1 efflux ratio (Assay E)
Experimental: The MDCK assays provide information on the potential of a compound to pass the blood brain barrier. Permeability measurements across polarized, confluent MDCK-MDR1 cell monolayers grown on permeable filter supports are used as an in vitro absorption model: apparent permeability coefficients (PE) of the compounds across the MDCK-MDR1 cell monolayers are measured (pH 7.4, 37° C.) in apical-to-basal (AB) and basal-to-apical (BA) transport direction. The AB permeability (PEAB) represents drug absorption from the blood into the brain and the BA permeability (PEBA) drug efflux from the brain back into the blood via both, passive permeability as well as active transport mechanisms mediated by efflux and uptake transporters that are expressed on the MDCK-MDR1 cells, predominantly by the overexpressed human MDR1. Identical or similar permeabilities in both transport directions indicate passive permeation, vectorial permeability points to additional active transport mechanisms. Higher PEBA than PEAB (PEBA/PEAB >3) indicates the involvement of active efflux mediated by MDR1, which might compromise the goal to achieve sufficient brain exposure.
Assay E. MDCK assay MDR-1 (P-gp)
Apparent permeability coefficients (Papp) of the compounds across MDCK-MDR1 monolayers (MDCKII cells transfected with human MDR1 gene) are measured in apical-to-basal (AB) and basal-to-apical (BA) direction.
MDCK-MDR1 cells (6×10^5 cells/cm^2) are seeded onto filter inserts (Corning, Transwell, polycarbonate, 0.4 μm pore size) and cultured for 9 to 10 days. Compounds dissolved in DMSO stock solution (1-20 mM) are diluted with HTP-4 buffer (128.13 mM NaCl, 5.36 mM KCl, 1 mM MgSO4, 1.8 mM CaCl2, 4.17 mM NaHCO3, 1.19 mM Na2HPO4, 0.41 mM NaH2PO4, 15 mM HEPES, 20 mM glucose, pH 7.4) supplemented with 0.25% BSA to prepare the transport solutions, resulting in a final test concentration of 1 μM or 10 μM and a final DMSO content of 0.5%. The transport solution is applied to the apical or basolateral donor side for measuring A-B or B-A permeability, respectively. The receiver side contains HTP-4 buffer supplemented with 0.25% BSA. Samples are collected at the start and end of experiment from the donor and at various time intervals for up to 2 hours from the receiver side for concentration measurement by HPLC-MS/MS. Sampled receiver volumes are replaced with fresh receiver solution.
All data reported for Assay E were measured with a final test concentration of 10 μM.

human androgen receptor = human androgen receptor (Homo sapiens (Human), UniProt P10275); experiment: Assay B: human androgen receptor luciferase reporter assay (Indigo Biosciences); assay type: cell-based; conditions: for Selectivity Assay B/Assay A: ratio IC50 androgen receptor / IC50 IDO1
From the text: Assay B. In Vitro Testing of Androgen Receptor Potency:
The human androgen receptor (AR) assay was run using Product #IB03001 from Indigo Biosciences. The cell line provided in this kit carries a reporter gene, induced upon AR stimulation. This reporter gene is cDNA encoding for beetle luciferase, a 62 kD protein originating from the North American firefly (Photinus pyralis). This luciferase catalyzes the mono-oxidation of D-luciferin yielding oxyluciferin, adenosine monophosphate, pyrophosphate, CO2, and photon emission. The luminescence intensity of the reaction is quantified using a luminometer.
To run the assay, the cells are thawed by adding pre-warmed cell recovery medium to each tube, then placed in a 37° C. water bath. 30000 viable cells in 200 μl are plated (collagen coated plates) and incubated at 37° C., ≥85% humidity, 5% CO2 for 24 hours. Media is replaced with compound screening medium. Cells are then challenged with 125 pM (EC80) 6a-Fl Testosterone and compounds are applied in half logarithmic dilutions from 10 μM to 10 nM. Assay plates are then incubated at 37° C., ≥85% humidity, 5% CO2 for 22-24 hours. Media is replaced with luciferase detection reagent and allowed 5 minutes to equilibrate prior to luminescence quantification.
Data Analysis consisted of calculating percentage of control between 100% (Negative control:6a-Fl Testosterone) and 0 (positive control: no 6a-FL Testosterone). Fitting of normalized values was made 4-Parameter sigmoidal binding curve (Log[conc]) vs. signal.

[2] = Assay F: tissue distribution in rat after oral application; assay type: in vivo
From the text: as §1, §2
Male Han Wistar rats or C57BL/6NRj mice were orally dosed with 10 μmol/kg of compound to be investigated, suspended in 0.5% Natrosol/0.015% Tween80. Blood was collected in K3EDTA containing vials from the sublingual vein in short time Isoflurane anesthesia in rat or from the saphenous vein in conscious mice at […], 0.25, 0.5, 1, 2, 3, 4, 8 and 24 hours post administration. Subsequently, plasma was prepared by centrifugation for 5 min at 5000 rpm and stored at −20° C.
Tissues and CSF were sampled in anaesthetized animals. CSF was collected from the cisterna magna. Following exsanguination a femoral muscle sample was collected. Cranium and the dura matter were removed and the complete brain was collected. Before transfer of the muscle and brain sample to pre-weight homogenization devices (Precellys®) the tissues were rinsed with saline and blotted dry.
For homogenization, four parts (v/w) homogenization buffer (37.5% acetonitrile, 37.5% methanol, 25% water) were added. Tissues were homogenized with a Precellys® Evolution homogenizer. Five μL of the homogenate were added to 70 μL of a 1 to 1 (v/v) mixture of acetonitrile and methanol and frozen for at least 10 min at −18° C.
For final sample preparation, the sample was centrifuged at 4000 rpm for 1 min, and an aliquot of the resulting supernatant (30 μL) was mixed with 170 μL formic acid prior to injection to LC-MS. Calibration curves were prepared accordingly in rat and mouse plasma, respectively. All animal care and experimental procedures at Boehringer Ingelheim were conducted in compliance with the German and European Animal Welfare Act (EU Directive 2010/63/EU) and were approved by the Regierungspräsidium Tübingen as the responsible local German authority (reference number 35/9185.81-8/14-009-G).

[3] = oral 10 μmol/kg, muscle/brain tissue distribution

Chain of MDR1 (P-gp) (P08183 whole entry): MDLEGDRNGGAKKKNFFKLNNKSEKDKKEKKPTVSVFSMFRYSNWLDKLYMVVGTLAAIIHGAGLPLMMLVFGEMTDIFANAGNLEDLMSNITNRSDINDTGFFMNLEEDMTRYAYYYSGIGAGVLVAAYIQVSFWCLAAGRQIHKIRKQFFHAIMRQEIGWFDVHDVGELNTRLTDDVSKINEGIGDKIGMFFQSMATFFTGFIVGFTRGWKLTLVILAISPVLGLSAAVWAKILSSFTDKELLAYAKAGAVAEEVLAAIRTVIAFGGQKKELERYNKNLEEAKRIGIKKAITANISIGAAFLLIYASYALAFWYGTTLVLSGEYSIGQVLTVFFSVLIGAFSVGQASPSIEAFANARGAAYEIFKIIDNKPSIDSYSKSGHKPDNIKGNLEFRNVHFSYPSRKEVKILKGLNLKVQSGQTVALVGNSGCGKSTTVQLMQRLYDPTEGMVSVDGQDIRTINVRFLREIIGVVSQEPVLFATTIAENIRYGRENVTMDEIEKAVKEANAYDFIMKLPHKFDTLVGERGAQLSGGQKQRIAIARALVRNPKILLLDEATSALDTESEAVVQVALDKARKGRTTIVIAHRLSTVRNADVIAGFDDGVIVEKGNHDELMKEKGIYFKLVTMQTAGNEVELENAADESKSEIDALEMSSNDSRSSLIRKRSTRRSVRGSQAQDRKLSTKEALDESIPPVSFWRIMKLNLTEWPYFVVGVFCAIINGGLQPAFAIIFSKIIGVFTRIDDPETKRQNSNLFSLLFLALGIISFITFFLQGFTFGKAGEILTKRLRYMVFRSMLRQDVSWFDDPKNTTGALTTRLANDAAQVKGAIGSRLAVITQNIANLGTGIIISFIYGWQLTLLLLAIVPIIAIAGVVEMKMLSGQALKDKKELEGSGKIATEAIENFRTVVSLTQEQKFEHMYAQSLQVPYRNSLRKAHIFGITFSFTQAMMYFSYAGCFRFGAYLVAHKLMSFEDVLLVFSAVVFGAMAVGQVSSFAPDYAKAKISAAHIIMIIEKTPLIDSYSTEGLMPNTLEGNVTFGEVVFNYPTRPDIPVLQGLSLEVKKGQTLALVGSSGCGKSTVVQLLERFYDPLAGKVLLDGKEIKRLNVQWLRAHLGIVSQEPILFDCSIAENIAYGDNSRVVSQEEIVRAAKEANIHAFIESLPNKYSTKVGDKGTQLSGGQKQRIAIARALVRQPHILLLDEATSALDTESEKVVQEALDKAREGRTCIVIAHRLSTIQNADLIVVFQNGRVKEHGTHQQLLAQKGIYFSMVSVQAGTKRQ
Chain of human androgen receptor (P10275 whole entry): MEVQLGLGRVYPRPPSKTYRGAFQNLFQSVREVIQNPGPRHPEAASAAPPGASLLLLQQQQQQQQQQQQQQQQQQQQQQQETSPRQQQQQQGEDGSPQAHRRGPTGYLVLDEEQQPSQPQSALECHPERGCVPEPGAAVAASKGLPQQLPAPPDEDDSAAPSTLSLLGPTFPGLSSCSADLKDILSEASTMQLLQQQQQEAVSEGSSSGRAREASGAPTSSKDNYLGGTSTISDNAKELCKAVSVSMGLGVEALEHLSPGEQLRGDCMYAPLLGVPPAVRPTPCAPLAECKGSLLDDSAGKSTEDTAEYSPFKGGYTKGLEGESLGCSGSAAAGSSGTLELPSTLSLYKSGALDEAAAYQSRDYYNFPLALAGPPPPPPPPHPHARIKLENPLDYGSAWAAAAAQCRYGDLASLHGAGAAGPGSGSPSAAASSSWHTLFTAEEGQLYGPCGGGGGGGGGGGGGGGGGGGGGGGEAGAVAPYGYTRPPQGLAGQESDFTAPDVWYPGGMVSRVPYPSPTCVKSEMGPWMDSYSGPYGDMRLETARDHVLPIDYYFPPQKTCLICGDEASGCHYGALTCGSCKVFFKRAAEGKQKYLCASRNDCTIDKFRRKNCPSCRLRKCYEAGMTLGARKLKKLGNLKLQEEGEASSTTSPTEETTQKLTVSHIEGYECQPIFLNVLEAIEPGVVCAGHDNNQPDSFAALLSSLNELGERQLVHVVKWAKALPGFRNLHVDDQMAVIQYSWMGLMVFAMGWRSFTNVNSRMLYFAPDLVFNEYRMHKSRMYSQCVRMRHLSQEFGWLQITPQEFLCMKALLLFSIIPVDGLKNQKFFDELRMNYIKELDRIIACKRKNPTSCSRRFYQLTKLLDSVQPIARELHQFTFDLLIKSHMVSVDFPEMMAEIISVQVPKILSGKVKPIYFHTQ

SMILES	in vivo efflux (in words) ([1]; after oral application)	in vivo efflux (Assay F) [1, 3]	in vitro efflux, MDCK-MDR1 (in words) (MDR1 (P-gp))	efflux ratio at 2 h, 10 μM (MDR1 (P-gp))	Selectivity Assay B/Assay A (human androgen receptor)	in vivo efflux (in words) ([2]; after oral application)	in vivo efflux (Assay F) [2, 3]	IC50 (human androgen receptor; challenge with 125 pM (EC80) 6a-Fl Testosterone, mean +− standard deviation) [µM]
CC(C)(NC(=O)c1ccc(Cl)s1)C(=O)Nc1ccc(Cl)c(F)c1 [Example 3, 2-[(5-chlorothiophen-2-yl)formamido]-N-(4-chloro-3-fluorophenyl)-2-methylpropanamide]	neither in vitro nor in vivo efflux	0.60 (mouse)	neither in vitro nor in vivo efflux	0.5	33	–	–	–
CC(C)(NC(=O)c1ccc(Cl)s1)C(=O)Nc1ccc(Br)cc1 [Example 4, 2-[(5-chlorothiophen-2-yl)formamido]-N-(4-bromophenyl)-2-methylpropanamide]	–	–	neither in vitro nor in vivo efflux	0.5	>42	neither in vitro nor in vivo efflux	0.50 (rat)	> 10
